# Test results as given in patent US5409949A, “Methylen-oxindole derivatives compositions and tyrosine kinase inhibition therewith” (Farmitalia Carlo Erba S.r.l., priority 1991, dated 1995).
# pIC50: −log10 of the molar value.
# What was measured:
# [1] = target: v-abl kinase; assay: Myelin Basic Protein phosphorylation assay; type: biochemical; conditions: myelin basic protein 56 μM as substrate, 10 μM cold ATP, pH 8.0, 22° C.
# Procedure: (§1) The tyrosine specific protein kinase activity of these compounds is shown by the in vitro tests described herebelow.
# (§2) The enzyme used in the Abelson tyrosine kinase p95^v-ab which was produced and isolated as follows: 1 Liter cultures of HB-130 cells in LB medium, supplemented with ampicillin, were grown at 30° C. as described by Wang et al. in J. Biol. Chem. 260, 64 (1985). The expression of v-abl protein was induced by shifting the temperature to 42° C. for 3-4 h. The bacterial cells were collected on ice, centrifuged and frozen in liquid nitrogen. The cell pellet was lysed as described by Ferguson et al. in J. Biol. Chem. 260, 3652 (1985) and in Biochem. J. 257, 321 (1989). Briefly, bacterial proteins were removed by differential solubilization with sodium deoxycholate, NaCl and β-octylglucopyranoside in different steps. Insoluble v-abl protein was solubilized with 2M KSCN and dialyzed against 100 volumes of 50 mM Tris-HCl, pH 7.5, 1 mM EDTA and 0.1 mM dithiothreitol (buffer A). The soluble proteins were separated by chromatography on a prepacked Mono-Q anion exchange column in a f.p.l.c. system. […]
# The in vitro test with Myelin Basic Protein as substrate was carried out as follows: Protein phosphorylation was performed by incubating 40 ng of purified v-abl kinase, 1.5 μCi […] Bands were located by autoradiography, excised from gel and counted in a liquid scintillation counter.
# [2] = target: v-abl kinase; assay: Autophosphorylation assay (v-abl kinase); type: biochemical; conditions: immunoprecipitated v-abl kinase, 10 μM ATP, 15 min, room temperature
# Procedure: as §1
# as §2, with “A).” for “A). The soluble proteins were separated by chromatography on a prepacked Mono-Q anion exchange column in a f.p.l.c. system.”
# For the autophosphorylation assay the v-abl kinase was immunoprecipitated with antiphosphotyrosine antibodies and the resulting immunocomplex analyzed in 50 μl of kinase buffer in the presence of 10 μM ATP and 10 μCi […]. […] Bands were located by autoradiography, excised and counted as above. […]
SMILES,pIC50 [1],pIC50 [2]
O=C1Nc2ccccc2C1=Cc1c[nH]c2ccccc12 [3-[(3'-indolyl)methylen]-2-oxindole],6.22,5.00
O=C1Nc2ccc(O)cc2C1=Cc1c[nH]c2ccccc12 [5-Hydroxy-3-[(3'-indolyl)methylene]-2-oxindole],6.40,6.40
